According to ChEMBL document CHEMBL1641470, “New azoles with antifungal activity: Design, synthesis, and molecular docking” (2011):
Values after ≈ are worked out from the molar mass of the structure shown.

What was measured:
Assay type in all cases: functional
Candida albicans = test: Antifungal activity against Candida albicans ATCC Y0109 after 24 hrs by broth microdilution method
Cryptococcus neoformans = test: Antifungal activity against Cryptococcus neoformans ATCC BLS108 after 72 hrs by broth microdilution method
Candida parapsilosis = test: Antifungal activity against Candida parapsilosis by broth microdilution method; details: Lodderomyces parapsilosis
Candida tropicalis = test: Antifungal activity against Candida tropicalis by broth microdilution method
Trichophyton rubrum = test: Antifungal activity against Trichophyton rubrum by broth microdilution method
Fusarium = test: Antifungal activity against Fusarium by broth microdilution method
Nannizzia gypsea = test: Antifungal activity against Microsporum gypseum by broth microdilution method
Aspergillus fumigatus = test: Antifungal activity against Aspergillus fumigatus by broth microdilution method

Row | MIC80 (Candida albicans) [µg/mL] | MIC80 (Cryptococcus neoformans) [µg/mL] | MIC80 (Candida parapsilosis) [µg/mL] | MIC80 (Candida tropicalis) [µg/mL] | MIC80 (Trichophyton rubrum) [µg/mL] | MIC80 (Fusarium) [µg/mL] | MIC80 (Nannizzia gypsea) [µg/mL] | MIC80 (Aspergillus fumigatus) [µg/mL] | Compound
1 | 0.25 (≈ 0.39 µM) | 0.0156 (≈ 0.0243 µM) | 0.0625 (≈ 0.0974 µM) | 0.0156 (≈ 0.0243 µM) | 0.0625 (≈ 0.0974 µM) | 1 (≈ 1.56 µM) | 0.0625 (≈ 0.0974 µM) | 1 (≈ 1.56 µM) | O=C(/C=C/c1ccc(Br)cc1)Nc1ccc(N2CCN(CC(O)(Cn3cncn3)c3ccc(F)cc3F)CC2)c(F)c1 (stereo not drawn)
2 | 1 (≈ 1.42 µM) | 1 (≈ 1.42 µM) | 0.25 (≈ 0.354 µM) | 0.25 (≈ 0.354 µM) | 0.0152 (≈ 0.0215 µM) | 0.25 (≈ 0.354 µM) | 0.0152 (≈ 0.0215 µM) | 1 (≈ 1.42 µM) | CCC(C)n1ncn(-c2ccc(N3CCN(c4ccc(OCC5COC(Cn6cncn6)(c6ccc(Cl)cc6Cl)O5)cc4)CC3)cc2)c1=O (stereo not drawn) [ITRACONAZOLE]
3 | 1 (≈ 1.67 µM) | 0.25 (≈ 0.419 µM) | 0.25 (≈ 0.419 µM) | 0.0625 (≈ 0.105 µM) | 0.25 (≈ 0.419 µM) | 1 (≈ 1.67 µM) | 0.0625 (≈ 0.105 µM) | 1 (≈ 1.67 µM) | O=C(/C=C/c1cccc(Cl)c1)Nc1ccc(N2CCN(CC(O)(Cn3cncn3)c3ccc(F)cc3F)CC2)c(F)c1 (stereo not drawn)
4 | 0.0625 (≈ 0.111 µM) | 0.25 (≈ 0.444 µM) | 0.25 (≈ 0.444 µM) | 0.25 (≈ 0.444 µM) | 0.0039 (≈ 0.00693 µM) | 1 (≈ 1.78 µM) | 0.0625 (≈ 0.111 µM) | 0.0625 (≈ 0.111 µM) | O=C(/C=C/c1ccc(F)cc1)Nc1ccc(N2CCN(CC(O)(Cn3cncn3)c3ccc(F)cc3F)CC2)cc1 (stereo not drawn)
5 | 0.25 (≈ 0.431 µM) | 0.25 (≈ 0.431 µM) | 0.0625 (≈ 0.108 µM) | 0.0625 (≈ 0.108 µM) | 0.0625 (≈ 0.108 µM) | 1 (≈ 1.72 µM) | 0.25 (≈ 0.431 µM) | 4 (≈ 6.89 µM) | O=C(/C=C/c1ccccc1F)Nc1ccc(N2CCN(CC(O)(Cn3cncn3)c3ccc(F)cc3F)CC2)c(F)c1 (stereo not drawn)
6 | 0.25 (≈ 0.425 µM) | 1 (≈ 1.7 µM) | 1 (≈ 1.7 µM) | 1 (≈ 1.7 µM) | 4 (≈ 6.81 µM) | 64 (≈ 109 µM) | 4 (≈ 6.81 µM) | > 64 | N#Cc1ccc(/C=C/C(=O)Nc2ccc(N3CCN(CC(O)(Cn4cncn4)c4ccc(F)cc4F)CC3)c(F)c2)cc1 (stereo not drawn)
7 | 0.0625 (≈ 0.1 µM) | 1 (≈ 1.6 µM) | 0.25 (≈ 0.401 µM) | 0.25 (≈ 0.401 µM) | 0.0625 (≈ 0.1 µM) | 1 (≈ 1.6 µM) | 1 (≈ 1.6 µM) | 16 (≈ 25.7 µM) | O=C(/C=C/c1cccc(Br)c1)Nc1ccc(N2CCN(CC(O)(Cn3cncn3)c3ccc(F)cc3F)CC2)cc1 (stereo not drawn)
8 | 0.25 (≈ 0.431 µM) | 0.25 (≈ 0.431 µM) | 0.0156 (≈ 0.0269 µM) | 0.25 (≈ 0.431 µM) | 0.25 (≈ 0.431 µM) | 0.25 (≈ 0.431 µM) | 0.25 (≈ 0.431 µM) | 4 (≈ 6.89 µM) | O=C(/C=C/c1cccc(F)c1)Nc1ccc(N2CCN(CC(O)(Cn3cncn3)c3ccc(F)cc3F)CC2)c(F)c1 (stereo not drawn)
9 | 1 (≈ 1.67 µM) | 1 (≈ 1.67 µM) | 0.25 (≈ 0.419 µM) | 0.25 (≈ 0.419 µM) | 0.25 (≈ 0.419 µM) | 1 (≈ 1.67 µM) | 0.25 (≈ 0.419 µM) | 4 (≈ 6.7 µM) | O=C(/C=C/c1ccccc1Cl)Nc1ccc(N2CCN(CC(O)(Cn3cncn3)c3ccc(F)cc3F)CC2)c(F)c1 (stereo not drawn)
10 | 0.0156 (≈ 0.0265 µM) | 1 (≈ 1.7 µM) | 0.25 (≈ 0.424 µM) | 0.0625 (≈ 0.106 µM) | 0.0625 (≈ 0.106 µM) | 4 (≈ 6.78 µM) | 0.25 (≈ 0.424 µM) | > 64 | O=C(/C=C/c1ccccc1[N+](=O)[O-])Nc1ccc(N2CCN(CC(O)(Cn3cncn3)c3ccc(F)cc3F)CC2)cc1 (stereo not drawn)
11 | 0.0156 (≈ 0.0257 µM) | 1 (≈ 1.65 µM) | 0.25 (≈ 0.411 µM) | 0.25 (≈ 0.411 µM) | 0.0625 (≈ 0.103 µM) | 1 (≈ 1.65 µM) | 0.25 (≈ 0.411 µM) | > 64 | O=C(/C=C/c1ccc([N+](=O)[O-])cc1)Nc1ccc(N2CCN(CC(O)(Cn3cncn3)c3ccc(F)cc3F)CC2)c(F)c1 (stereo not drawn)
12 | 0.25 (≈ 0.434 µM) | 4 (≈ 6.94 µM) | 1 (≈ 1.73 µM) | 0.0625 (≈ 0.108 µM) | 0.25 (≈ 0.434 µM) | 1 (≈ 1.73 µM) | 0.25 (≈ 0.434 µM) | 1 (≈ 1.73 µM) | Cc1ccc(/C=C/C(=O)Nc2ccc(N3CCN(CC(O)(Cn4cncn4)c4ccc(F)cc4F)CC3)c(F)c2)cc1 (stereo not drawn)
13 | 0.0039 (≈ 0.00693 µM) | 0.0625 (≈ 0.111 µM) | 0.0625 (≈ 0.111 µM) | 0.0156 (≈ 0.0277 µM) | 0.25 (≈ 0.444 µM) | 1 (≈ 1.78 µM) | 0.0625 (≈ 0.111 µM) | > 64 | O=C(/C=C/c1ccccc1F)Nc1ccc(N2CCN(CC(O)(Cn3cncn3)c3ccc(F)cc3F)CC2)cc1 (stereo not drawn)
14 | 0.0039 (≈ 0.00642 µM) | 0.0625 (≈ 0.103 µM) | 0.0625 (≈ 0.103 µM) | 0.0625 (≈ 0.103 µM) | 0.0625 (≈ 0.103 µM) | 0.0625 (≈ 0.103 µM) | 0.0625 (≈ 0.103 µM) | > 64 | O=C(/C=C/c1cccc([N+](=O)[O-])c1)Nc1ccc(N2CCN(CC(O)(Cn3cncn3)c3ccc(F)cc3F)CC2)c(F)c1 (stereo not drawn)
15 | 0.0156 (≈ 0.0258 µM) | 0.25 (≈ 0.413 µM) | 0.0625 (≈ 0.103 µM) | 0.0625 (≈ 0.103 µM) | 0.25 (≈ 0.413 µM) | 1 (≈ 1.65 µM) | 0.25 (≈ 0.413 µM) | 4 (≈ 6.62 µM) | COc1ccc(/C=C/C(=O)Nc2ccc(N3CCN(CC(O)(Cn4cncn4)c4ccc(F)cc4F)CC3)cc2)cc1OC (stereo not drawn)
16 | 0.25 (≈ 0.431 µM) | 0.25 (≈ 0.431 µM) | 0.0156 (≈ 0.0269 µM) | 0.0156 (≈ 0.0269 µM) | 0.0625 (≈ 0.108 µM) | 0.25 (≈ 0.431 µM) | 0.25 (≈ 0.431 µM) | 1 (≈ 1.72 µM) | O=C(/C=C/c1ccc(F)cc1)Nc1ccc(N2CCN(CC(O)(Cn3cncn3)c3ccc(F)cc3F)CC2)c(F)c1 (stereo not drawn)
